Experimental data taken from ChEMBL document CHEMBL5523762, “Discovery of Potent and Selective G9a Degraders for the Treatment of Pancreatic Cancer” (J Med Chem, 2024).
Active and inactive are the calls of the source. The rule behind the calls is not given here.

What was measured:
[1] = Bioavailability in male ICR mouse at 20 mg/kg, ip measured upto 24 hrs by LC-MS/MS analysis; type: ADME, organism-based; conditions: in vivo
ASPC1 [2] = experiment: Synergistic antiproliferative activity against human ASPC1 cells assessed as combination index for ED90 upto 20 uM incubated for 72 hrs in presence of MRTX1133; type: functional
PANC-1 [3] = experiment: Effect on H3K27me2 level in human PANC-1 cells at 0.04 to 10 uM measured after 24 hrs by Western blot analysis; type: functional, cell-based; conditions: dose 0.04-10 µM
Panc1005 [4] = experiment: Antiproliferative activity against human Panc1005 cells assessed as inhibition of cell growth measured after 72 hrs by SRB assay; type: functional, cell-based
KP-4 [5] = experiment: Inhibition of colony formation in human KP-4 cells at 5 to 10 uM in presence of MRTX1133 measured after 10 to 14 days by crystal violet staining based analysis; type: functional, cell-based; conditions: dose 5-10 µM, time 10-14 day
HPAF-II [6] = experiment: Synergistic antiproliferative activity against human HPAF-II cells assessed as combination index for ED90 upto 20 uM incubated for 72 hrs in presence of MRTX1133; type: functional
Panc1005 [7] = experiment: Synergistic antiproliferative activity against human Panc1005 cells assessed as combination index upto 20 uM incubated for 72 hrs in presence of MRTX1133; type: functional
PANC-1 [8] = experiment: Effect on H3K79me3 level in human PANC-1 cells at 0.04 to 10 uM measured after 24 hrs by Western blot analysis; type: functional, cell-based; conditions: dose 0.04-10 µM
KP-4 [9] = experiment: Synergistic antiproliferative activity against human KP-4 cells assessed as combination index for ED90 upto 20 uM incubated for 72 hrs in presence of MRTX1133; type: functional
PANC-1 [10] = experiment: Effect on GLP mRNA expression at transcriptional level in human PANC-1 cells at 0.1 to 10 uM by RT-qPCR analysis; type: functional, cell-based; conditions: dose 0.1-10 µM
[11] = target: T1, Protein cereblon/Histone-lysine N-methyltransferase EHMT2 (Homo sapiens, UniProt Q96KQ7+Q96SW2); experiment: PROTAC activity at CRBN/G9a in human PANC-1 cells assessed as induction of G9a degradation at 1 uM pretreated with UNC0638 for 2 hrs followed by compound addition and measured after 8 hrs by Western blot analysis; type: cell-based
Target sequence in this assay (Q96KQ7 2-1210 limits assumed): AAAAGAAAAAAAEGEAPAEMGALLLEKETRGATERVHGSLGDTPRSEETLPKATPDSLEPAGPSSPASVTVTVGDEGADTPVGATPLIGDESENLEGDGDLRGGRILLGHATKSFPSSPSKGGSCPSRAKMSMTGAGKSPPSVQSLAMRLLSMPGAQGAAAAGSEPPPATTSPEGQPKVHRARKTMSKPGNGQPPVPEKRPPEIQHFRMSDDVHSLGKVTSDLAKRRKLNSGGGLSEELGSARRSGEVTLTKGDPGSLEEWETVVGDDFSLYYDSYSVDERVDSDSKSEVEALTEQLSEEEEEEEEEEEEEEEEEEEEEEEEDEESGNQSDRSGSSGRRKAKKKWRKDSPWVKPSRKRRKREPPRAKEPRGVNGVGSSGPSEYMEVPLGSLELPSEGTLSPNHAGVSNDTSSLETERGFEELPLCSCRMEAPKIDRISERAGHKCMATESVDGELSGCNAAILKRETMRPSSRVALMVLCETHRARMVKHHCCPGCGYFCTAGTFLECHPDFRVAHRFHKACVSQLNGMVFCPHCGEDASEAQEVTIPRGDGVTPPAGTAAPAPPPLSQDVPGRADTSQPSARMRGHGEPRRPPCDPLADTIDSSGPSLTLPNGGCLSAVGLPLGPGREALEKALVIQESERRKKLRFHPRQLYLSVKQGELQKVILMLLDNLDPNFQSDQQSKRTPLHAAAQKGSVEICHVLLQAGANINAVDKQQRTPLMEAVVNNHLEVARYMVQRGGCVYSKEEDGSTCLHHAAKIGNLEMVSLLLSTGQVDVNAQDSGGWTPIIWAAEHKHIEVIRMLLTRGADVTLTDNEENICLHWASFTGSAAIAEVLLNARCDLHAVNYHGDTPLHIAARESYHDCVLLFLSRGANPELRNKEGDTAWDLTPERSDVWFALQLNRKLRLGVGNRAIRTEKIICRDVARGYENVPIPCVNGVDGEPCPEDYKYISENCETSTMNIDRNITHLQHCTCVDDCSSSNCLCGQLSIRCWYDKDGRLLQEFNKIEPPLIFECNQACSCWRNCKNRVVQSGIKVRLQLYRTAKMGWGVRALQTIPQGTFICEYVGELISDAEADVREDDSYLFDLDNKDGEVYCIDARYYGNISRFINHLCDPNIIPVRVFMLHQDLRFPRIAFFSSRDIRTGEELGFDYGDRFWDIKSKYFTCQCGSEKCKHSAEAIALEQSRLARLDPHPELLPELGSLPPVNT
Target sequence in this assay (Q96SW2 whole entry partner): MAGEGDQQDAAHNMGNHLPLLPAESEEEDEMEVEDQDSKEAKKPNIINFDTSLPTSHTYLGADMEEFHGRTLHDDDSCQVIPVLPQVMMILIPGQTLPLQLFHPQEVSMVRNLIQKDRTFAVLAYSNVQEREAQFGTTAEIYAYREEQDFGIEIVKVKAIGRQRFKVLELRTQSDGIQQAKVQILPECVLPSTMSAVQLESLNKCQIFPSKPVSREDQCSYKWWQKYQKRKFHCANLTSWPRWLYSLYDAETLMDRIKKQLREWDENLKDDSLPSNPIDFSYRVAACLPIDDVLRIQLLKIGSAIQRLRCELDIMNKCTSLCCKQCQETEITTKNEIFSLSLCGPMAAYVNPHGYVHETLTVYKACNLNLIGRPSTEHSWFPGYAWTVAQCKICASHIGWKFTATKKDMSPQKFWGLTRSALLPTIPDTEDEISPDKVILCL

PANC-1 [12] = experiment: Effect on cell cycle arrest in human PANC-1 cells at 5 to 10 uM measured after 24 hrs by RNaseA/PI staining based flow cytometry analysis; type: functional; conditions: dose 5-10 µM
PANC-08-13 = experiment: Synergistic antiproliferative activity against human PANC-08-13 cells assessed as combination index for ED90 upto 20 uM incubated for 72 hrs in presence of MRTX1133; type: functional
PANC-1 [13] = experiment: Induction of apoptosis in human PANC-1 cells measured after 24 hrs by Annexin V-FITC/PI staining based flow cytometry analysis; type: functional, cell-based; conditions: dose 5-12.5 µM
HPAF-II [14] = experiment: Synergistic antiproliferative activity against human HPAF-II cells assessed as combination index upto 20 uM incubated for 72 hrs in presence of MRTX1133; type: functional
ASPC1 [15] = experiment: Induction of apoptosis in human ASPC1 cells at 10 uM incubated for 24 hrs in presence of 1 uM MRTX1133 by Annexin V-FITC/PI staining based flow cytometry analysis; type: functional, cell-based
KP-4 [16] = experiment: Synergistic antiproliferative activity against human KP-4 cells at 0 to 10 uM incubated for 72 hrs in presence of MRTX1133 by SRB assay; type: functional, cell-based; conditions: dose 0-10 µM
Panc 05.04 = experiment: Antiproliferative activity against human Panc 05.04 cells assessed as inhibition of cell growth measured after 72 hrs by SRB assay; type: functional, cell-based
CWR22R = experiment: Antiproliferative activity against human 22Rv1 cells assessed as inhibition of cell growth measured after 7 days by SRB assay; type: functional, cell-based; conditions: 22Rv1, 168 h
[17] = AUC (0 to t) in male ICR mouse at 20 mg/kg, ip measured upto 24 hrs by LC-MS/MS analysis; type: ADME, organism-based; conditions: in vivo
[18] = Half life in male ICR mouse at 5 mg/kg, iv measured upto 24 hrs by LC-MS/MS analysis; type: ADME, organism-based; conditions: in vivo
[19] = target: T1, Protein cereblon/Histone-lysine N-methyltransferase EHMT2; experiment: PROTAC activity at CRBN/G9a in human ASPC1 cells assessed as induction of G9a degradation measured after 8 hrs by Western blot analysis; type: cell-based
Target sequence in this assay (Q96KQ7 whole entry): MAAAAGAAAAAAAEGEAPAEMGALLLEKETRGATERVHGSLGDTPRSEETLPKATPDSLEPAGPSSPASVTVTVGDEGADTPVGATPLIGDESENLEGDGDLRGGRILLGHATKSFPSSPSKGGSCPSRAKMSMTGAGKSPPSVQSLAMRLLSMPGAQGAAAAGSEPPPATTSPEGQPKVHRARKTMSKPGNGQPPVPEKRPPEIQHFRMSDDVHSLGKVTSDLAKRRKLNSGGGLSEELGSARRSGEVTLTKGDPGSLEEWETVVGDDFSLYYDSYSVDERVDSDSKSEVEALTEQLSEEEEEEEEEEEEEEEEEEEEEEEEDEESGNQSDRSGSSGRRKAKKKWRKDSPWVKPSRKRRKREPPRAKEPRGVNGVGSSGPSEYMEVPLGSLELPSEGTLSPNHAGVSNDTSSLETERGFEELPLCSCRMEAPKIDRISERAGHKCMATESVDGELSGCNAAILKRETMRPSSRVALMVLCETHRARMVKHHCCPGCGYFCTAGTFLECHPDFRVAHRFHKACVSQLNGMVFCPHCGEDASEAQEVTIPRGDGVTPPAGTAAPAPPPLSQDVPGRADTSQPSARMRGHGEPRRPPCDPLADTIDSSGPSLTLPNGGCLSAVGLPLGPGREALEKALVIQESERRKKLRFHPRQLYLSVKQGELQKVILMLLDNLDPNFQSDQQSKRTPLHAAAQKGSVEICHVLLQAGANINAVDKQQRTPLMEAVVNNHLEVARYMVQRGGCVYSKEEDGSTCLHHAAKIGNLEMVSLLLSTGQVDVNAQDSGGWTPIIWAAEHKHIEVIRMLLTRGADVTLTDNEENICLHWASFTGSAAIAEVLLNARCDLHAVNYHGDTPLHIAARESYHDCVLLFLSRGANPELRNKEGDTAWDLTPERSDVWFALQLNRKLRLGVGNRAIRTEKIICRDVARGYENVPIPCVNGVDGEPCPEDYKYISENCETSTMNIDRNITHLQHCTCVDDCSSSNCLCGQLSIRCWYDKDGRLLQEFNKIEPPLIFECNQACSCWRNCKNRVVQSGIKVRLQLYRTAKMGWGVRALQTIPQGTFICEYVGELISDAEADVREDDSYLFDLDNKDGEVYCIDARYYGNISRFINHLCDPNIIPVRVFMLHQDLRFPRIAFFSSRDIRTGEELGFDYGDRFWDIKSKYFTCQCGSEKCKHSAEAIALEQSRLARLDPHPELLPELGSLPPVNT
Target sequence in this assay (Q96SW2 whole entry): as the sequence (Q96SW2 whole entry partner) above

[20] = target: T1, Protein cereblon/Histone-lysine N-methyltransferase EHMT2; experiment: PROTAC activity at CRBN/G9a in human PANC-1 cells assessed as downregulation of G9a protein level at 1 uM measured after 8 hrs by quantitative proteomics analysis; type: cell-based
Target sequence in this assay (Q96KQ7 2-1210 limits assumed): as the sequence (Q96KQ7 2-1210 limits assumed) above
Target sequence in this assay (Q96SW2 whole entry partner): as the sequence (Q96SW2 whole entry partner) above

[21] = target: Protein cereblon/Histone-lysine N-methyltransferase EHMT1 (Homo sapiens) (UniProt Q9H9B1+Q96SW2); experiment: PROTAC activity at CRBN/GLP in human PANC-1 cells assessed as downregulation of GLP protein level at 1 uM in presence of 50 uM cycloheximide measured after 0 to 16 hrs by […]; type: cell-based; conditions: time 0-16 hrs
Protein cereblon/Histone-lysine N-methyltransferase EHMT1 (Homo sapiens), sequence (Q96SW2 whole entry, looked up): as the sequence (Q96SW2 whole entry partner) above
Protein cereblon/Histone-lysine N-methyltransferase EHMT1 (Homo sapiens), sequence (Q9H9B1 whole entry, looked up): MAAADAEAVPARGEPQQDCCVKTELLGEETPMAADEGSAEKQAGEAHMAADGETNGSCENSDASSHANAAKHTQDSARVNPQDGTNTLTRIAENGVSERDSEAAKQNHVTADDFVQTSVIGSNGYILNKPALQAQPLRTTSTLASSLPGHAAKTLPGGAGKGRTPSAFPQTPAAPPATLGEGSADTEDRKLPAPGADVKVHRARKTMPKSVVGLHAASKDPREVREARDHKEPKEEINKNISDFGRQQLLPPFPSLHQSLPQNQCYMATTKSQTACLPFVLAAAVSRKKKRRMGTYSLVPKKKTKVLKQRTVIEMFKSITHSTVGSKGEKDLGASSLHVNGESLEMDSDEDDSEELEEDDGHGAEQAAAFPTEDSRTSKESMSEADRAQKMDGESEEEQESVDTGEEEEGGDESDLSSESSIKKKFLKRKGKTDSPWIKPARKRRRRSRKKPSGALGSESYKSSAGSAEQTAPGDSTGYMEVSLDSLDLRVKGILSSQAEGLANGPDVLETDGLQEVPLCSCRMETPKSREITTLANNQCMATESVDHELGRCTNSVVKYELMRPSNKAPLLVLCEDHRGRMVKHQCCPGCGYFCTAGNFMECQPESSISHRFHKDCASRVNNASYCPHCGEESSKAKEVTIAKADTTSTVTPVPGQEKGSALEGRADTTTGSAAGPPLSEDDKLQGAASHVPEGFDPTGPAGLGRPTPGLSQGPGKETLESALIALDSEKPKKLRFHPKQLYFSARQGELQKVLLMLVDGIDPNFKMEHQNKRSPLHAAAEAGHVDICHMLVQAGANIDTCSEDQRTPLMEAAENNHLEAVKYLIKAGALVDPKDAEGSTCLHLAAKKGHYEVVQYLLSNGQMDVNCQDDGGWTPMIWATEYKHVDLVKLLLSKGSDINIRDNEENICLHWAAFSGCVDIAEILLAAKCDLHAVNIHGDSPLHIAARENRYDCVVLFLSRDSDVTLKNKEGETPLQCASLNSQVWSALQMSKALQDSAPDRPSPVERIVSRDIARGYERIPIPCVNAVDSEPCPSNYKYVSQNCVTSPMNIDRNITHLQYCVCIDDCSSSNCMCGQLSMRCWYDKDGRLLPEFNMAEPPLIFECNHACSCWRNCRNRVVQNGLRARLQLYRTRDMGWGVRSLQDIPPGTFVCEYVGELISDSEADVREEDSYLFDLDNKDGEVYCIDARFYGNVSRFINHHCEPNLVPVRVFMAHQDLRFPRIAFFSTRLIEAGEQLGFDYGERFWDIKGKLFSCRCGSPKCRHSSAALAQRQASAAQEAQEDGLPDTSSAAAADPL

PANC-1 [22] = experiment: Effect on H3K27me1 level in human PANC-1 cells at 0.04 to 10 uM measured after 24 hrs by Western blot analysis; type: functional, cell-based; conditions: dose 0.04-10 µM
ASPC1 [23] = experiment: Sensitization of human ASPC1 cells to MRTX1133 assessed as upregulation of cleaved PARP level at 10 uM incubated for 24 hrs in presence of 1 uM MRTX1133 by Western blot analysis; type: functional, cell-based
[24] = Volume of distribution at steady state in male ICR mouse at 5 mg/kg, iv measured upto 24 hrs by LC-MS/MS analysis; type: ADME, organism-based; conditions: in vivo, read-out: Vdss
PANC-1 [25] = experiment: Downregulation of H3K9me2 level in human PANC-1 cells measured after 24 hrs by Western blot analysis; type: functional, cell-based; conditions: dose 0.04-10 µM
Panc 02.03 [26] = experiment: Synergistic antiproliferative activity against human Panc 02.03 cells assessed as combination index upto 20 uM incubated for 72 hrs in presence of MRTX1133; type: functional
PANC-1 [27] = experiment: Effect on H3K4me3 level in human PANC-1 cells at 0.04 to 10 uM measured after 24 hrs by Western blot analysis; type: functional, cell-based; conditions: dose 0.04-10 µM
PANC-1 [28] = experiment: Antiproliferative activity against human PANC-1 cells assessed as inhibition of cell growth measured after 72 hrs by SRB assay; type: functional, cell-based
PANC-1 [29] = experiment: Downregulation of H3K9me2 expression in human PANC-1 cells at 0.1 to 10 uM measured after 24 hrs by Western blot analysis; type: functional, cell-based; conditions: dose 0.1-10 µM
[30] = target: T1, Protein cereblon/Histone-lysine N-methyltransferase EHMT2; experiment: PROTAC activity at CRBN/G9a in human PANC-1 cells assessed as induction of G9a degradation at 1 uM pretreated with MG132 for 2 hrs followed by compound addition and measured after 8 hrs by Western blot analysis; type: cell-based
Target sequence in this assay (Q96KQ7 2-1210 limits assumed): as the sequence (Q96KQ7 2-1210 limits assumed) above
Target sequence in this assay (Q96SW2 whole entry partner): as the sequence (Q96SW2 whole entry partner) above

KP-4 [31] = experiment: Synergistic antiproliferative activity against human KP-4 cells assessed as combination index upto 20 uM incubated for 72 hrs in presence of MRTX1133; type: functional
Panc 02.03 [32] = experiment: Antiproliferative activity against human Panc 02.03 cells assessed as inhibition of cell growth measured after 72 hrs by SRB assay; type: functional, cell-based
ASPC1 [33] = experiment: Synergistic antiproliferative activity against human ASPC1 cells assessed as combination index upto 20 uM incubated for 72 hrs in presence of MRTX1133; type: functional
PANC-1 [34] = experiment: Effect on CK1alpha level in human PANC-1 cells at 0.008 to 10 uM measured after 8 hrs by western blot analysis; type: functional, cell-based; conditions: dose 0.008-10 µM

bioavailability [1]: 40.6% | Activity [11]: inactive | AUC(0-t) at 24 h [17]: 6150 ng·h/mL | half-life [18]: 5.3 h | DC50 [19]: 0.2 µM | Activity [20]: Active | Activity [21]: inactive | Vd [24]: 2.61 L/kg | Activity [30]: inactive
Structure (SMILES): COc1cc2c(NC3CCN(CCCC(=O)NCCCCCCCCNc4cccc5c4C(=O)N(C4CCC(=O)NC4=O)C5=O)CC3)nc(C3CCCCC3)nc2cc1OCCCN1CCCC1 (configuration not stated)
CI (ASPC1 [2]): <0.4 | Activity (PANC-1 [3]): inactive | Activity (Panc1005 [4]): Active | inhibition (KP-4 [5]): Active | CI (HPAF-II [6]): <0.4 | CI (Panc1005 [7]): <0.8 | Activity (PANC-1 [8]): inactive | CI (KP-4 [9]): <0.4 | Activity (PANC-1 [10]): inactive | Activity (PANC-1 [12]): Active | CI (PANC-08-13): <0.4 | Activity (PANC-1 [13]): Dose-Dependent Effect | CI (HPAF-II [14]): <0.8 | Activity (ASPC1 [15]): Active | Activity (KP-4 [16]): Active | Activity (Panc 05.04): Active | IC50 (CWR22R): 9.9 µM | Activity (PANC-1 [22]): inactive | Activity (ASPC1 [23]): Active | Activity (PANC-1 [25]): Active | CI (Panc 02.03 [26]): <0.8 | Activity (PANC-1 [27]): inactive | Activity (PANC-1 [28]): Active | Activity (PANC-1 [29]): Active | CI (KP-4 [31]): <0.8 | Activity (Panc 02.03 [32]): Active | CI (ASPC1 [33]): <0.8 | Activity (PANC-1 [34]): inactive
